Results as given in patent US10588935B2, “FC receptor (FcRn) binding peptides and uses thereof” (THE BRIGHAM AND WOMEN'S HOSPITAL, INC., priority 2013, dated 2020).
Where “and” joins values, the source holds several entries; their conditions need not be identical. Identical values can stand only once. Entries after “also recorded” stand apart in the source; their conditions may differ. Like-named read-outs stand apart in the source and are kept apart here. Each block holds one compound with its values, some of them ahead of it. Bridge positions count the residues as written; N and C are the ends. Peptide text beside a SMILES is read from it.

How the values were obtained:
[1] = biological target: T1, soluble human FcRn (Homo sapiens, UniProt P55899); experiment: SPR (Biacore) affinity of peptides for immobilized soluble human FcRn; format: binding
T1 construct: Soluble human FcRn was expressed and purified by Biogen-Idec as previously described (29)
Method in brief: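 FcRn amine-coupled to CM5 chip; binding run at pH 6.0 or 7.4 in 50 mM phosphate, 100 mM NaCl, 0.01% P20, with 5-minute dissociation and pH 8.0 Tris regeneration. KD derived from sensorgrams with a 1:1 binding model; end-of-association responses plotted versus concentration.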

[2] = biological target: shFcRn binding to HSA (Homo sapiens, UniProt P55899); experiment: SPR screening of FcRn binding peptides for inhibition of shFcRn binding to immobilized HSA; conditions: 14 uM peptide, 5 uM shFcRn, pH 6
Procedure: Unreacted sites were then capped by injecting a solution of ethanolamine over the chip surface. A reference flow cell was activated with EDC/NHS and then blocked with ethanolamine.
Samples were injected over the chip for 3 minutes at 20 uL/min followed by a 2.5 minute dissociation phase.

[3] = biological target: T2, FcRn (Homo sapiens, UniProt P55899); experiment: Competition for albumin or IgG binding to FcRn; set-up: Soluble human FcRn was expressed and purified by Biogen-Idec as previously described (29); conditions: for Competition for albumin or IgG binding to FcRn: Table 3; for competition with IgG or albumin for the FcRn binding site: competition experiments / SPR
From the text: Peptide phage libraries, obtained from Dyax Corp, were screened against biotinylated soluble human FcRn bound to streptavidin beads, using 3 rounds of sequential pH 6.0 binding and pH 7.5 elution/amplification protocols. […] Peptide SYN514 was utilized during a 2nd peptide phage screen to occupy this site on FcRn prior to the addition of the phage libraries, and to identify albumin-competitive sequences. This strategy uncovered the albumin-competitive peptide, SYN571, and through structure-activity relationships, the shorter sequence SYN1753 (Ac-[…]-CONH2 (SEQ ID NO: 1) (disulfide) which bound to shFcRn with equivalent affinity as determined by SPR.

[4] = biological target: T2, FcRn; conditions: Mezo, PNAS, 2007; cited from earlier work
[5] = tested on: MDCK II cells expressing hFcRn and hβ2m; experiment: FcRn dependent albumin transcytosis bioassay; format: cell-based, canine; conditions: input chamber pH 6.0, exit pH 7.4, 2 hours, compared to scrambled peptide or isotype control
Procedure: Albumin transcytosis assays were performed as previously described for IgG. In brief, MDCK II cells expressing hβ2m and hFcRn were grown to confluence on transwells (Costar) and allowed to polarize over 4 days. 12 hours before the transcytosis experiment, the medium was changed to serum-free media without antibiotics. On the day of experiment, the transwells were incubated with HBSS pH 7.4 for 20 minutes before placing on a new 12 well plate (Costar) where the input chamber contains HBSS pH 6.0 and the exit chamber contains HBSS pH 7.4 and pH adjusted albumin was added to the input chamber afterwards. For blocking albumin transcytosis with the peptide inhibitors SYN1753 and SYN3258, transwells were pre-incubated for 20 min with the respective peptides in HBSS pH 6.0 prior to the addition of albumin in the continued presence of the peptides. After incubating for 2 hours in 37° C. and 5% CO2, the medium at the opposite chamber were harvested and the albumin concentration was measured using ELISA method. For the recycling assay, the transwells were washed with HBSS pH 7.4 for 5 minutes before placing on a new 12-well plate with HBSS pH 6.0 at both chambers. After equilibration at 37° C. and 5% CO2, pH adjusted albumin human albumin was added and allowed to incubate for one hour. The transwells were then washed at HBSS pH 6.0 before placing in a new 12-well plate with HBSS pH 7.4 at both chambers. After one hour incubation, medium from the input chamber was removed and the albumin concentration was measured by ELISA. For the human albumin secretion assay the medium was changed to serum- and antibiotic-free media on the day of the experiment. 50 μL of the medium from both chambers were removed periodically over 24 hours, and the human albumin concentration was measured using ELISA with volume reduction adjustment.

[6] = tested on: hFCGRT^Tg/hB2m^Tg/mFcgrt^−/− mice; experiment: In vivo acetaminophen toxicity with blockade of FcRn-albumin interaction; set-up: species or system mouse; conditions: 40 mg/kg body weight per day via i.p. osmotic pump; vs control peptide
Procedure: In vivo acetaminophen toxicity experiments: Acetaminophen (Sigma-Aldrich) was diluted in PBS at a concentration of 33.3 mg/ml. […] In blocking experiments using antibody administration, ADM31 or isotype control were administered 14 h prior to the injection of APAP. For blocking the interaction between FcRn and albumin via peptide, a cyclic control peptide for SYN3258 was designed in which three key residues per monomer that were identified by alanine screening to be critical for binding between FcRn and albumin were mutated to alanines (W7A, W11A, […]). SYN3258 or the control peptide were then continuously administered at a dose of 40 mg/kg body weight per day via i.p. osmotic pumps (Alzet, Cupertino, Cat. No 1003D) over a 72 hour period. Prior to the surgical implantation of the pumps, mice were anaesthetized with Buprenex (0.1 mg/kg body weight) s.c. and Ketamine HCl (100 mg/kg)/Xylazine (10 mg/kg) i.p. Hair on the incision site was clipped and the implantation area was disinfected by 5% iodine in 70% isopropanol. Antibiotics (100 μg/ml of gentamycin) were sprayed on the area of incision to prevent infection, and skin was sutured using polypropylene suture. Total duration of the surgical procedure was around 5 minutes per mouse. 18-20 hours after pump implantation, a lethal dose of acetaminophen was administered i.p.

[7] = Table 1, pH 6, shFcRn immobilized on the sensor chip, steady state fit, read-out: Kd, pH 6** Biacore
[8] = pH 6.0, read-out: affinity for FcRn by SPR

Compound: CC(=O)N[C@@H](CCCNC(=N)N)C(=O)N[C@@H](Cc1ccccc1)C(=O)N[C@@H]1C(=O)N[C@@H]([C@@H](C)O)C(=O)NCC(=O)N[C@@H](Cc2c[nH]cn2)C(=O)N[C@@H](Cc2ccccc2)C(=O)NCC(=O)N(C)CC(=O)N(C)[C@@H](CC(C)C)C(=O)N[C@@H](Cc2ccc(O)cc2)C(=O)N2CCC[C@H]2C(=O)N[C@H](C(N)=O)CSSC1(C)C [SYN1327, Ac-RF-Pen-TGHFG-Sar-NMeLeu-YPC-CONH2, reference compound]
block of shFcRn binding to immobilized HSA [2]: not able to compete for HSA binding
block of IgG binding to hFcRn [4]: block the binding of IgG to hFcRn
Competition for albumin or IgG binding to FcRn [3]: IgG
competition with IgG or albumin for the FcRn binding site [3]: competes for binding of IgG

Compound: Ac-AGVMHCFWDEEFKCDQGGTGGGK-CONH2 (Ac-AGVMHCFWDEEFKCDQGGTGGGK-NH2; disulfide 6-14 (inferred)) [SYN514]
competition with IgG or albumin for the FcRn binding site [3]: non-IgG, non-albumin competitive

Compound: CC(=O)N[C@@H](CCCNC(=N)N)C(=O)N[C@@H](Cc1ccc(O)cc1)C(=O)N[C@@H](Cc1ccccc1)C(=O)N[C@H]1CSSC[C@@H](C(=O)N[C@@H](CCC(=O)O)C(=O)N[C@@H](CCC(=O)O)C(=O)N[C@H](C(=O)NCC(=O)N[C@H](C(=O)NCC(=O)NCC(=O)NCC(=O)N[C@@H](CCCNC(=N)N)C(=O)N[C@@H](Cc2ccc(O)cc2)C(=O)N[C@@H](Cc2ccccc2)C(=O)N[C@H]2CSSC[C@@H](C(=O)N[C@@H](CCC(=O)O)C(=O)N[C@@H](CCC(=O)O)C(=O)N[C@H](C(=O)NCC(=O)N[C@H](C(N)=O)[C@@H](C)O)C(C)C)NC(=O)[C@H](Cc3c[nH]c4ccccc34)NC(=O)CNC(=O)[C@H](Cc3c[nH]cn3)NC(=O)[C@H](CCCCN)NC(=O)[C@H](Cc3c[nH]c4ccccc34)NC(=O)[C@H](CCCCN)NC(=O)[C@H]([C@@H](C)O)NC2=O)[C@@H](C)O)C(C)C)NC(=O)[C@H](Cc2c[nH]c3ccccc23)NC(=O)CNC(=O)[C@H](Cc2c[nH]cn2)NC(=O)[C@H](CCCCN)NC(=O)[C@H](Cc2c[nH]c3ccccc23)NC(=O)[C@H](CCCCN)NC(=O)[C@H]([C@@H](C)O)NC1=O [SYN3258] (Ac-RYFCTKWKHGWCEEVGTGGGRYFCTKWKHGWCEEVGT-NH2; disulfide 4-12, 24-32)
Kd [1, 8]: 0.0036 µM
transcytosis of human albumin [5]: capable of blocking transcytosis of human albumin; also recorded: inhibit FcRn-directed transcytosis of albumin
transcytosis of human albumin ([5]; listed as Syn3258): significantly reducing
protection from liver injury (serum ALT) after lethal dose of APAP [6]: conferred protection from liver injury
survival rate after lethal dose of APAP [6]: improve the survival rate

The next lines start with results.

Kd Ratio 7.4/6.0 ([1]; Table 2): 34
Kd ([1]; Table 2, pH 6, immobilized shFcRn, data fit steady state or 2 site, read-out: Kd, pH 6** Biacore): 0.032 µM
Kd ([1]; Table 2, pH 7.4, data only 100 uM, therefore Kd may be higher, read-out: Kd, pH 7.4 Biacore): 1.1 µM
Competition for albumin or IgG binding to FcRn [3]: none
Compound: CSCC[C@H](NC(=O)[C@@H](NC(C)=O)C(C)C)C(=O)N[C@@H](Cc1c[nH]cn1)C(=O)N[C@H]1CSSC[C@@H](C(=O)N[C@@H](CCC(=O)O)C(=O)N[C@@H](Cc2ccc(O)cc2)C(=O)N[C@H](C(N)=O)C(C)C)NC(=O)[C@H](CCCNC(=N)N)NC(=O)[C@H](Cc2ccccc2)NC(=O)[C@H](CCC(=O)O)NC(=O)[C@H](CCC(=O)O)NC(=O)[C@H](CC(=O)O)NC(=O)[C@H](Cc2c[nH]c3ccccc23)NC(=O)[C@H](Cc2ccccc2)NC1=O [SYN1383] (Ac-VMHCFWDEEFRCEYV-NH2; disulfide 4-12 (inferred))
block of shFcRn binding to immobilized HSA [2]: not able to block the binding of shFcRn to HSA
competition with IgG or albumin for the FcRn binding site [3]: not been shown to be competitive with IgG or any other proteins; also recorded: does not block IgG binding to FcRn; also recorded: non-IgG, non-albumin competitive

Kd Ratio 7.4/6.0 ([1]; Table 1): 29
Kd [1, 7]: 0.45 µM and 0.5 µM
Kd ([1]; Table 1, pH 7.4, shFcRn immobilized, read-out: Kd, pH 7.4 Biacore): 13.1 µM
block of shFcRn binding to immobilized HSA [2]: completely block
Compound: CC(=O)N[C@@H](C)C(=O)NCC(=O)N[C@@H](CCCNC(=N)N)C(=O)N[C@@H](Cc1ccc(O)cc1)C(=O)N[C@@H](Cc1ccccc1)C(=O)N[C@H]1CSSC[C@@H](C(=O)N[C@@H](CCC(=O)O)C(=O)N[C@@H](CCC(=O)O)C(=O)N[C@H](C(=O)NCC(=O)N[C@H](C(=O)NCC(=O)NCC(=O)NCC(=O)N[C@@H](CCCCN)C(N)=O)[C@@H](C)O)C(C)C)NC(=O)[C@H](Cc2c[nH]c3ccccc23)NC(=O)CNC(=O)[C@H](Cc2c[nH]cn2)NC(=O)[C@H](CCCCN)NC(=O)[C@H](Cc2c[nH]c3ccccc23)NC(=O)[C@H](CCCCN)NC(=O)[C@H]([C@@H](C)O)NC1=O [SYN571] (Ac-AGRYFCTKWKHGWCEEVGTGGGK-NH2; disulfide 6-14)
competition with IgG or albumin for the FcRn binding site [3]: albumin-competitive; also recorded: inhibit shFcRn:albumin interactions, but not those of IgG: shFcRn

Kd ([1]; Table 3, pH 6.0, read-out: Kd, pH 6.0 (Biacore μM)): 0.5 µM
Kd [1, 8]: ~0.5 µM
Compound: CC(=O)N[C@@H](CCCNC(=N)N)C(=O)N[C@@H](Cc1ccc(O)cc1)C(=O)N[C@@H](Cc1ccccc1)C(=O)N[C@H]1CSSC[C@@H](C(=O)N[C@@H](CCC(=O)O)C(=O)N[C@@H](CCC(=O)O)C(=O)N[C@H](C(=O)NCC(=O)N[C@H](C(N)=O)[C@@H](C)O)C(C)C)NC(=O)[C@H](Cc2c[nH]c3ccccc23)NC(=O)CNC(=O)[C@H](Cc2c[nH]cn2)NC(=O)[C@H](CCCCN)NC(=O)[C@H](Cc2c[nH]c3ccccc23)NC(=O)[C@H](CCCCN)NC(=O)[C@H]([C@@H](C)O)NC1=O [SYN1753]
transcytosis of human albumin [5]: capable of blocking transcytosis of human albumin; also recorded: significantly reducing

Kd [1, 7]: > 100 µM
Compound: CC(=O)N[C@@H](CCCNC(=N)N)C(=O)N[C@@H](Cc1ccc(O)cc1)C(=O)N[C@@H](Cc1ccccc1)C(=O)N[C@H]1CSSC[C@@H](C(=O)N[C@@H](CCC(=O)O)C(=O)N[C@@H](CCC(=O)O)C(=O)N[C@H](C(N)=O)C(C)C)NC(=O)[C@H](Cc2c[nH]c3ccccc23)NC(=O)CNC(=O)[C@H](Cc2c[nH]cn2)NC(=O)[C@H](CCCCN)NC(=O)[C@H](C)NC(=O)[C@H](CCCCN)NC(=O)[C@H]([C@@H](C)O)NC1=O [SYN1547] (Ac-RYFCTKAKHGWCEEV-NH2; disulfide 4-12)
